What all share (assay type): in vivo, human
Test [1] deals with hair follicle stem cells. Description: Hair growth on the scalp of a subject after citrate administration. The procedure: Citrate was administered to a subject in the morning as magnesium and potassium citrate and at lunch time as 10 ml of lemon juice to provide a total daily citrate dose of 1.85 g. The antioxidant melatonin was administered at night to provide a total nightly dose of between 10 mg and 470 mg. Citrate was administered daily for four weeks. Citrate was administered to the subject in the morning as magnesium and potassium citrate, at lunch time as 10 ml of lemon juice and as calcium and sodium citrate with a total daily citrate dose of 3.95 g. The antioxidant melatonin was administered at night to provide a total nightly dose of between 10 mg and 470 mg.

The subject of test [2] is muscle stem cells (satellite cells). Description: Muscle mass of the subject after citrate administration. Conditions: total daily citrate dose 3.95 g. As to the method:
(§1) Citrate was administered to the subject in the morning as magnesium and potassium citrate, at lunch time as 10 ml of lemon juice and as calcium and sodium citrate with a total daily citrate dose of 3.95 g. The antioxidant melatonin was administered at night to provide a total nightly dose of between 10 mg and 470 mg.

Test [3] deals with C reactive protein (CRP). Description: CRP level in the blood of the subject. The procedure: as §1
CRP levels were reduced from 0.5 mg/L to <0.3 mg/L (0.3 mg/L represents the lower limit of detection) following two months of citrate administration. A subsequent measurement of CRP using equipment with higher sensitivity identified a CRP level of below 0.16 mg/L. The Inventor believes that reduced CRP levels result from increased differentiation of senescent stem cells and reduced production of senescent cells via cell dedifferentiation.

Test [4] is described as follows: Blood glucose over 24 hour periods by continuous glucose monitor (CGM). Conditions: 2-40 g citrate daily, 10 months; two non-consecutive days; FIGS. 5(d),(e). As to the method:
(§2) Citrate was administered to the subject with a total daily citrate dose of between 2 and 40 g for a period of 10 months. Blood glucose levels were measured over separate 24 hour periods using a continuous glucose monitor (CGM) purchased from Dexcom.

Test [5] can be described thus: Concentration of key biomarkers in the blood (HbA1c, folate, glucose). As to the method: as §2
The Inventor also measured haemoglobin A1C (HbA1c) which can be used as a diagnostic marker for diabetes. An HbA1c concentration of >6.4% is indicative of diabetes, and a concentration of 5.7% to 6.4% is indicative of prediabetes.

Test [6] is described as follows: Kidney function markers (Cystatin C, creatinine). The source says:
The subject's creatinine levels reached as low as […].

Test [7] can be described thus: Facial skin quality (number of blemishes). Conditions: 2-40 g citrate daily for 6 weeks; before: 25; FIG. 6. The source says:
Administration of citrate was also found to improve facial skin quality following administration of between 2 and 40 g of citrate daily for a period of 6 weeks.

The subject of test [8] is precancerous spot. Description: Appearance of a precancerous spot on the skin. Conditions: about 3 g citrate daily for about 3 months; FIG. 7.

Some results are limits rather than exact numbers.

The values below come from patent US20250248957A1, “CELL DIFFERENTIATION” (JOHN HEMMING TRADING LTD, priority 2022, published 2025).

For `O=C(O)CC(O)(CC(=O)O)C(=O)O` [citrate], the “hair growth with added red or infrared radiation” value in test [1] (topical red or infrared radiation 600-900 nm in addition to citrate) was “further improved hair growth”. In test [1] (total daily citrate dose 1.85 g for four weeks, melatonin at night, FIG. 1), the “growth of new hairs in areas of the scalp which had suffered hair loss” value is on record as “growth of new hairs was observed”. Besides, in test [1] (total daily citrate dose 3.95 g, melatonin at night, compared to Example 1, FIGS. 2-4), the “growth of thicker and darker hairs” value was “growth of hairs which were thicker and darker”. For the same compound, the muscle mass entry in test [2] is given as “An increase in muscle mass”. Besides, in test [3] (after two months of citrate, baseline 0.5 mg/L, lower limit of detection 0.3 mg/L), the “CRP level in blood” value is below 0.3 mg/L. In addition, in test [3] (subsequent measurement), the “CRP level, subsequent measurement with higher sensitivity equipment” value was “below 0.16 mg/L”. The “blood glucose peaks over 24 hour period (CGM)” value in test [4] was “no significant glucose peaks occurred”. In addition, in test [5] (2-40 g citrate daily), the HbA1c level maintained result was “less than 5.7%” and the “HbA1c level, lowest reached” value is 4.18%. Also, the “Glucose concentration in the blood” value in test [5] (following 6 months of citrate administration, reference range 3.3-5.6) amounted to 4.53 mmol/L. For the same compound, the “HbA1C in the blood” value in test [5] (following 6 months of citrate administration, reference range 4-6) was found to be 4.18%. Further, the “creatinine level, lowest reached” value in test [6] (2-40 g citrate daily, 10 months) is 62 mmol/L. Besides, the “Cystatin C level” value in test [6] (following 3 months of citrate, 2-40 g daily, baseline 0.98 mg/L) was found to be 0.89 mg/L. Further, the “number of facial blemishes” value in test [7] was 20. Further, in test [8], the “appearance of a precancerous spot on the skin” value was “reduce the appearance of a precancerous spot”.
